The results in this text go back to patent publication US10406191B2, “Compounds, extracts and methods from chinese medicinal herb sophora flavescens that inhibit airway contraction” (priority 2013, dated 2019).

Entries after “also recorded” stand apart in the source; their conditions may differ. Counter-ions that a name gives are not always drawn.

The test system of data set [1] is airway smooth muscle (ASM) in tracheal rings from OVA sensitized/challenged mice. Description: Inhibition of acetylcholine-induced ASM contraction in tracheal rings (ex vivo myography, 30 min pretreatment). On the set-up: species or system BALB/c mice. To be noted: for ASM contraction to acetylcholine: isolated compound at 6.0 μg/ml, FIG. 6A/6B; for ASM contraction to acetylcholine / Ach-induced contraction (10-4 M Ach, percent of 60 mM KCL): 30 min pretreatment; for Ach-induced contraction (10-4 M Ach, percent of 60 mM KCL): 10 μg/ml (Matrine 40 μM, Sophocarpine 40 μM, Oxymatrine 37 μM); for Ach-induced contraction (10-4 M Ach, percent of 60 mM KCL) / relative potency among the matrine type alkaloids: FIGS. 12, 13; for relative potency among the matrine type alkaloids: 10 μg/ml. As for the experimental part: To determine which herbal constituents in ASHMI™ have a direct inhibitory effect on ASM contraction, an asthmatic mouse model was induced by ovalbumin (OVA) sensitization and challenge as described previously (Zhang et al., 2010). Tracheal rings from asthmatic mice were treated with an aq. extract of ASHMI™ (100 μg/ml), or individual herb aq. extracts, G. lucidum (35 μg/ml), S. flavescens (45 μg/ml) and G. uralenisis (20 μg/ml), for 30 min prior to ex vivo acetylcholine provocation. The ASHMI™ concentration was based on our previous publication (Zhang et al., 2010). Concentrations of individual herb extracts were equivalent to their individual concentrations in ASHMI™.
Balb/c mice were sensitized by intraperitoneal (i.p.) injection of 200 μg OVA plus 2 mg of aluminum hydroxide (alum) in 400 μl of PBS on days 0 and 7. Mice were challenged intratracheally (i.t.) with 100 μg of OVA in 50 μl of PBS weekly for 2 weeks (days 14 and 21). Mice were challenged i.t. once daily with 100 μg of OVA (50 μl) on 2 consecutive days (days 28 and 29) 48 hr before sacrifice and tissue harvesting.
Forty-eight hrs after the last i.t. OVA challenge, mice were sacrificed and tracheas were excised and cut into 3 tracheal rings as previously described. Each tracheal ring was attached to a pair of mounting pins in the organ chamber of a Myograph System Model 610M system (AD Instruments, Denver, Colo.) and bathed in a chamber containing physiological salt solution (PSS (In g/L—NaCl: 6.95, KCl: 0.35, MgSO4.7H2O: 0.28, KH2PO4: 0.1561, CaCl2.2H2O: 0.36, NaHCO3: 2.1, EDTA: 0.01, Glucose: 1.09, pH=7.4). All chambers were maintained at 37° C. and were continuously bubbled with 100% 02. The change of tracheal ring tension was recorded by Power Lab Chart recording software (AD Instruments). After incubation at 37° C. for 15 min at baseline tension, passive tension applied to the tracheal ring was adjusted to 1.00 mN. Following stabilization of passive tension, tracheal rings were contracted using 60 mM KCl twice, to assess ASM contractility. Tracheal rings were washed with PSS buffer 3 times and allowed to rest at 1.00 mN for 30 min after each stimulation. The individual compounds as indicated in FIG. 14 were dissolved in DMSO and then re-suspended in PBS (DMSO <0.1%). Each drug was added to the chamber at the concentrations indicated and the pre-incubation time was 30 min. Tracheal rings were then contracted with incremental doses of acetylcholine (from 10^-8 M to 10^-4 M). PBS (vehicle) treatment was used as control.

In a further data set the test system is tracheal tissue (rings). Description: Tracheal ring viability: contractile response to KCl after washout. Details: species or system mouse. As to conditions: 10 μg/ml. As for the experimental part:
FIG. 12. Representative real time tracing of murine tracheal ring contractions. Rings were first stimulated with 60 mM KCL to assess contractile potential. Compounds (Matrine (40 μM), Oxymatrine (37 μM), sophocarpine (40 μM) or PSS (vehicle) were added 30 minutes prior to stimulation with 10^-4 M Ach. Ring viability was tested 90 minutes after Ach washout.
We first generated a methylene chloride (MC) extract from an aq. extract of S. flavescens to obtain a flavonoid rich extract (designated MC extract, FIG. 2). […] We next generated 5 sub-fractions (MC-F1, 2, 3, 4 and 5) using preparative HPLC and tested each at 6.0 μg/ml. […] The inhibition of ASM contraction by MC-F1 was concentration-dependent (FIG. 4B) and non-toxic as contractile responses to KCl were present after buffer washings (FIG. 4C).
Having observed that Fraction 3 of S. flavescens was a potent inhibitor of Ach-stimulated tracheal contraction we tested major compounds present in this fraction in myography experiments. According to investigations using mass spectrometric techniques, the major compounds identified in SF Fraction 3 were the matrine type alkaloids-Matrine, Oxymatrine and Sophocarpine.

In data set [2] the test system is acetylcholine pre-contracted sensitized murine tracheal rings (ASM). Put plainly: Relaxation of acetylcholine pre-contracted tracheal rings. Details: species or system mouse. As to conditions: for effect of co-incubation with β2-AR antagonist ICI 118,551 on relaxation: FIG. 7A/7B. As for the experimental part: FIGS. 7A-7C. Relaxation effects of trifolirhizin or the β2-AR agonist fenoterol on acetylcholine pre-contracted ASM. (A). The relaxation effect of trifolirhizin on acetylcholine-stimulated tracheal rings with or without ICI 118,551 (ICI). (B). The relaxation effect of the β2-AR agonist fenoterol on acetylcholine-contracted tracheal rings with or without ICI 118,551; Relaxation is expressed as the percent of residual contractile tone remaining at 15 min after trifolirhizin or fenoterol addition. (C). Representative myography tracings of relaxation experiment using fenoterol (upper tracing), PBS control (middle tracing) or trifolirhizin- (lower tracing) treated sensitized mouse tracheal rings (***, p≤0.001 compared to PBS control). Note the magnitude of total relaxation achieved with trifolirhizin compared to the β2-AR agonist fenoterol.
The primary therapy for acute constriction of airway smooth muscle is β2-AR agonists which are inhaled for the acute relaxation of hyperresponsive airway smooth muscle. We performed studies with trifolirhizin to determine whether it could relax pre-contracted airway smooth muscle and how the magnitude of relaxation compared to a classic β2-AR agonist fenoterol. In order to investigate the relaxation effect of trifolirhizin on ASM, we tested this isolated compound on acetylcholine pre-contracted sensitized murine tracheal rings. […] The maximal relaxation was 85% of the initial contractile tone at a trifolirhzin concentration of 20 μg/ml (FIG. 7A). In parallel studies the β2-AR agonist fenoterol only achieved 25% relaxation even at the highest concentration tested (10^-5 M).

The test system of data set [3] is airway resistance in response to methacholine. Description: Airway resistance to nebulized methacholine, forced oscillation technique (Flexivent). The format is in vivo, male A/J mice. As to conditions: nebulized 25 ul of 60 ug/ml, 15 minutes before nebulized methacholine; N=3; FIG. 15. As for the experimental part: FIG. 15: Airway resistance in male A/J 20 g mice pretreated with nebulization of vehicle (25 ul 0.3% DMSO) or trifolirhizin (25 ul of 60 ug/ml) 15 minutes before nebulized methacholine as measured by the forced oscillation technique (Flexivent, Scireq). N=3.

Turning to `COc1ccc(-c2coc3cc(O)ccc3c2=O)cc1O` [3′,7-dihydroxy-4′-methoxy-isoflavone], in data set [1], the “ASM contraction to acetylcholine” value is reported as “had no effect on ASM contraction”.

Take `C[C@@H]1C[C@H]2[C@@H]3CCC4=CC(=O)C=C[C@]4(C)[C@@]3(F)[C@@H](O)C[C@]2(C)[C@@]1(O)C(=O)CO` [Dexamethasone, dexamethasone, reference compound]: the “acetylcholine-induced ASM contractions” value in data set [1] (10 μM acute pretreatment, FIG. 6D) is reported as “did not inhibit”.

Turning to `O=C1CCC[C@@H]2[C@H]3CCCN4CCC[C@@H](CN12)[C@@H]34` [Matrine], in data set [1], the “effect of Indomethacin on the suppressive effect on tracheal contractility” value (shortened to “effect of Indomethacin”) was “inhibited by Indomethacin”; the “Ach-induced contraction (10-4 M Ach, percent of 60 mM KCL)” value is listed as “inhibited Ach-induced contraction”; the “relative potency among the matrine type alkaloids” value is reported as “most potent; also recorded: more effective than Oxymatrine”. In addition, in the data set with tracheal tissue (rings), the “toxicity to tracheal tissue (response to KCL 90 minutes after washout)” value is recorded as “did not exhibit toxicity to tracheal tissue”.

As to `O=C1CCC[C@@H]2[C@H]3CCC[N+]4([O-])CCC[C@@H](CN12)[C@@H]34` (stereo partly shown) [Oxymatrine], in data set [1], the “effect of Indomethacin” value is on record as “inhibited by Indomethacin”; the “Ach-induced contraction (10-4 M Ach, percent of 60 mM KCL)” value is recorded as “inhibited Ach-induced contraction”; the “relative potency among the matrine type alkaloids” value is recorded as “weakest inhibitor of contraction”.

As to `O=C1C=CC[C@@H]2[C@H]3CCCN4CCC[C@@H](CN12)[C@@H]34` [Sophocarpine], in data set [1], the “effect of Indomethacin” value is “inhibited by Indomethacin”; the “Ach-induced contraction (10-4 M Ach, percent of 60 mM KCL)” value is recorded as “inhibited Ach-induced contraction”; the “relative potency among the matrine type alkaloids” value is “more effective than Oxymatrine”.

As for `CC(Cc1ccc(O)cc1)NCC(O)c1cc(O)cc(O)c1` (stereo not shown) [fenoterol, fenoterol hydrobromide, reference compound], the “effect of co-incubation with β2-AR antagonist ICI 118,551 on relaxation” value in data set [2] is listed as “completely blocked”. Also, in data set [2] (highest concentration tested (10^-5 M), parallel studies, FIG. 7B), the relaxation achieved is given as 25%. In addition, in data set [2] (increasing time of incubation), the “time course of relaxation effect” value is recorded as “slowly lost its effect”.

As for `OC[C@H]1O[C@@H](Oc2ccc3c(c2)OC[C@H]2c4cc5c(cc4O[C@@H]32)OCO5)[C@H](O)[C@@H](O)[C@@H]1O` [trifolirhizin], in data set [1] (concentrations lower than 6.0 μg/ml, FIG. 6B), the acetylcholine-induced contraction entry is “not at lower concentrations”. Besides, in data set [1], the “ASM contraction to acetylcholine” value is reported as “significantly inhibited acetylcholine-induced contraction”. Besides, the “effect of β2-AR antagonist ICI 118,551 on the compound's blockade of acetylcholine contraction” value in data set [1] (trifolirhizin 6.0 μg/ml with ICI 118,551 150 μM, 30 min preincubation, FIG. 6C) is on record as “had no effect; also recorded: did not block the effect”. Moreover, in data set [2] (20 μg/ml, 10^-5 M acetylcholine pre-contraction, FIG. 7A), the “maximal relaxation (of the initial contractile tone)” value is recorded as 85%. Also, the “effect of co-incubation with β2-AR antagonist ICI 118,551 on relaxation” value in data set [2] was “without effect”. Also, in data set [2] (rings stimulated by 10^-5 M acetylcholine, FIG. 7A), the “relaxation of pre-contracted tracheal rings, dose dependence” value is listed as “dose-dependent manner”. In data set [3], the “airway resistance in response to methacholine” value is listed as “significantly attenuated increased airway resistance”.
